Substitutions are numbered along the chain they refer to.
Legend:
Shp2-WT = target: T1, Shp2-WT (Homo sapiens, UniProt Q06124); test: Surface plasmon resonance analysis, Shp2-WT; type: binding; details: SPR, Fumos immobilized, Shp2-WT injected
T1 sequence (Q06124 1-593): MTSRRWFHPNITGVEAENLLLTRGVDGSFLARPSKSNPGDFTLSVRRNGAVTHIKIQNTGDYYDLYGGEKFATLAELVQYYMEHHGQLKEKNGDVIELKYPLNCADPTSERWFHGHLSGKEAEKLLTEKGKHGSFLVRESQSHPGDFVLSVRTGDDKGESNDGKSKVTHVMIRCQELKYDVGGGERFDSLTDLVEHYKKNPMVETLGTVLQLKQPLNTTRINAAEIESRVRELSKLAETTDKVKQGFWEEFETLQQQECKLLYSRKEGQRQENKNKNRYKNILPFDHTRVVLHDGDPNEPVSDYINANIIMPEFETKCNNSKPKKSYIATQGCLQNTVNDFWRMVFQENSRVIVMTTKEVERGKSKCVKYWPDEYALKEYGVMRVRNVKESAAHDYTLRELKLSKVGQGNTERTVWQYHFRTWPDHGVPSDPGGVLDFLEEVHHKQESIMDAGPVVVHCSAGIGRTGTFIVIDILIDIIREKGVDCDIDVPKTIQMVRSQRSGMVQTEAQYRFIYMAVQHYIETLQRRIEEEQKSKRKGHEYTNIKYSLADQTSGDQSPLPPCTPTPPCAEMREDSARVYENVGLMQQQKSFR
Method: (§1) One small molecule (10 mM) was spotted on the 3D sensor chip. Positive and negative controls on the chip were monitored for binding kinetics to verify immobilization. All experiments were performed using Plexera’s Plex Array SPRi instrumentation, visualized using Instrument Control software (ICS) and analyzed using Plexera Data Explorer software.
(§2) Proteins were injected in the following order: Shp2 full-length protein (12 nM, 36 nM, 108 nM, 324 nM), Shp2 Y279A protein (35 nM, 70 nM,140 nM, 280 nM, 560 nM). Each protein was injected at a flow rate of 1 μl/sec. The association duration was 200 sec and dissociation duration was 300 sec. Regeneration between injections was performed with 600 μl of 10 mM glycine-HCl, pH = 2.0. The data were analyzed by Plexera Data Explorer software.

HePTP = HePTP (Homo sapiens, UniProt P35236); test: in vitro PTP assay (pNPP), HePTP; type: biochemical
Method: Plasmids for expression of His-tag fusion proteins of human PTP were constructed in PET-28a by PCR subcloning techniques. The constructions contain only the PTP domain except Full-length Shp2. Full-length Shp2 containing Tyr279-to-Ala mutant was generated by PCR-based mutagenesis. All constructs were verified by DNA sequencing. PTP-His fusion proteins were expressed in Escherichia coli BL21 and lysed in the buffer (50 mM NaH2PO4, 300 mM NaCl, 250 mM imidazole, 1 mM dithiothreitol plus 5% glycerol), purified with Ni-NTA Magnetic Agarose Beads (Qiagen). The His-tag recombinant purification protocol was carried out according to the purification under native conditions of the QIAexpress System.
The assay was set in wells of 96-well plate with a final volume of 100 μl of reaction mixture containing 10 mM of NaAc-HAc, 1 mM of ethylene diamine tetraacetic acid, 1 mM of DL-dithiothreitol and 2% of dimethyl sulfoxide, pH 5.5. Activity of the enzyme was assayed by incubating recombinant PTP protein or mutant PTP with various concentrations of Fumos in the mixture at 37 °C for 30 min. Absorbance at 405 nm was detected immediately after addition of varied concentrations of substrate, p-nitrophenyl phosphate (pNPP) to each corresponding well.

[1] = system: PMA-induced ERK1/2 phosphorylation; test: PMA-induced ERK1/2 activation, Western blot; details: pretreated 24 h, 100 nM PMA 5 min; even at highest concentration tested
Method: Cells were pretreated with increasing concentrations of Fumos for 24 h, and then stimulated with 100 nM PMA for 5 min. DMSO treatment as control. ERK1/2 activation was analyzed by Western-Blot with antibodies to phosphorylated ERK1/2 (pERK) or ERK1/2. GAPDH is used as a loading control for Western Blot. The control treatment is not induced by PMA.
Cells were seeded in a culture bottle at 37 °C, under 5% CO2 and 95% air. […] Then cells were collected and dissolved in the lysis buffer (50 mM Hepes-NaOH, 100 mM NaCl, 0.5%NP-40, 2.5 mM EDTA, 10% glycerol, 1 mM DTT, 1 mM PMSF, 0.7 μl/ml pepstatin, 0.5 μg/ml leupetin, 2 μg/ml aprotinin). Cell lysates were centrifuged at 4 °C with the speed of 10,000 g for 15 min. After centrifugation, the supernatant was collected. 30 μg proteins were loaded on SDS-PAGE. After electrophoresis, proteins were transferred onto PVDF meber, and immunobloted with specific antibodies, and visualized using ECL reagent. Each membrane was stripped and reprobed with anti-GAPDH antibody to ensure equal protein loading. The bands were densitometrically scanned and analyzed using a BIO-RAD Gel Analysis System.

Shp2-Y279A = target: T2, Shp2-Y279A (Homo sapiens, UniProt Q06124, Y279A); test: Surface plasmon resonance analysis, Shp2-Y279A; type: binding
T2 sequence (Q06124 1-593 Y279A): T1 sequence (Q06124 1-593) with Y279A
Method: as §1, §2

HeLa cells = test: Transwell invasion assay, HeLa; type: cell-based, human; details: 4 and 14 μM, 24 h, EGF in lower chamber
Method: The invasion assay was performed in Transwell chambers according to Corning methods. Briefly, the upper chamber of a Transwell insert ([…] pore size) was coated with 40 μl 1:6 mixture of Matrigel (BD Biosciences, Bedford): Opti-MEM (Invitrogen) for MDA-MB-231 and 40 μl 1:12 mixture of Matrigel: Opti-MEM (Invitrogen) for HeLa cells and dried for 2 h at 37 °C. The lower chamber was filled with serum-free media containing 10 ng/ml EGF. Cells were seeded into upper chamber at a density 5 × 10^4 cells/ml per well in serum-free media. Cells were treated with series concentrations of Fumos for 24 h. The top aspect of the membrane was gently swabbed the inside of each insert using cotton swabs, and cells that invaded on the lower surface of the membrane were fixed using methanol and stained with crystal violet (Beyotime Institute of Biotechnology). Random fields were counted and photographed by microscope (Olympus).

[2] = SPR, Fumos immobilized, Shp2-Y279A injected

Chain of HePTP (P35236 97-350 limits assumed): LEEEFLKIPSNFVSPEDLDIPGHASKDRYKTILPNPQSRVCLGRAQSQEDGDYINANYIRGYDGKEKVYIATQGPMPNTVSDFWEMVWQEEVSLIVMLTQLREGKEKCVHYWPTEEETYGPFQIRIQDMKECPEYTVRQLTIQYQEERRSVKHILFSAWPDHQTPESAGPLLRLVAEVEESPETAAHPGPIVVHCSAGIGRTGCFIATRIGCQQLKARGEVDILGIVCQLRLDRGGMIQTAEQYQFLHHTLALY

## CC[C@@H](C)C[C@@H](C)/C=C(C)/C=C/C=C/C=C(\C)C(=O)c1c(O)c(-c2ccc(O)cc2)cn(O)c1=O [Fumos, Fumosorinone]
Shp2-WT
  Ka (association rate): 7.06 × 10^5 M^−1 S^−1
  Kd: 40 nM
  Kd (dissociation rate): 2.85 × 10^−2 S^−1
HePTP; HePTP PTP domain
  IC50: > 100000 nM
HePTP; HePTP relative to Shp2 PTP domain
  IC50 selective: >16
[1]
  PMA-induced ERK1/2 phosphorylation: did not inhibit
Shp2-Y279A; SPR KD comparison
  affinity of Shp2-Y279A relative to Shp2-WT: nine-fold less affinity
Shp2-Y279A; [2]
  Ka (association rate): 5.06 × 10^4 M^−1 S^−1
  Kd: 368 nM
  Kd (dissociation rate): 1.86 × 10^−2 S^−1
HeLa cells
  cell invasion (Transwell): significantly inhibited

Reference: paper PMC4667271, “Discovery of a Novel Inhibitor of the Protein Tyrosine Phosphatase Shp2” (Scientific Reports, 2015)
